Experimental data reported in patent publication US5077195A, “Polypeptides complementary to peptides or proteins having an amino acid sequence or nucleotide coding sequence at least partially known and methods of design therefor” (Board of Reagents, The University of Texas System, priority 1986, dated 1991).
Each block holds one compound with its values, some of them ahead of it. Where no end group is shown, it is not given here.

Tests used:
[1] = tested on: female ICR mice; experiment: Induction of catatonia in mice by i.c. injection of serum; assay type: in vivo; settings: simultaneous i.c. injection 0.2 mg
From the text: It is well known that large doses of opiate-like substances can induce a catatonic state in animals which is inhibited or reversed by treatment with the opiate antagonist naloxone. In analogy with the results in earlier examples, the ability of a peptide (gamma-ODNE) complementary to an opiate peptide, gamma-endorphin, to induce antibodies that have opiate properties was examined.
Gamma-ODNE (Example II) was conjugated to Keyhole Limpet Hemocyanin ([…]) and used with Freund's adjuvant to generate rabbit antibodies in a conventional manner (see Example 1F). Both normal and induced rabbit sera were injected intracerebroventicularly (i.c.) into female ICR mice.

[2] = target: T1, bovine gamma-endorphin (Bos taurus, UniProt P01190); experiment: ELISA binding of gamma-endorphin to coated wells; settings: gamma-odne 40 ug/well; compared with insulin or BSA coating
T1 construct: purchased Boehringer Mannheim (Indianapolis, IN); host or cells: chemical synthesis
Description: The wells of a 96-well round-bottomed microtiter plate were coated (by the procedure described in Example 1B) with gamma-odne (40 ug/well), insulin (20U/well) or bovine serum albumin (BSA, 200 ug/well). Varying concentrations of gamma-endorphin (as shown on the abscissa in FIG. 7) were incubated in the coated wells for 1 hr, after which the plates were thrice washed with PBS-Tween buffer. The wells were then treated with rabbit antibody for gamma-endorphin, washed, and then treated with goat antibody against rabbit immunoglobulin the goat antibody being conjugated to alkaline phosphatase. After washing away unbound goat antibody conjugate, the bound alkaline phosphatase activity was measured with p-nitrophenylphosphate as earlier described. The results of the above manipulations are shown in FIG. 7 where the extent of absorbance at 405 nm reflects the degree of gamma-endorphin binding to wells coated with gamma-odne, insulin or BSA. […] The shaded area in FIG. 7 represents the extent of gamma-endorphin binding in the presence of soluble excess of gamma-odne. Thus it is shown that a second pair of complementary peptides interacts in a manner showing affinity and apparent congruence.

[3] = target: T2, opiate receptors on NG108-15 cells (Mus musculus, UniProt P32300); experiment: Binding of ^125 I-beta-endorphin to NG108-15 cells; settings: read-out: % Inhibition of Specific ^125 I-beta-endorphin
T2 construct: opiate receptors on NG108-15 cells; endogenous in cells; host or cells: NG108-15 cells
T2 sequence (P32300 whole entry): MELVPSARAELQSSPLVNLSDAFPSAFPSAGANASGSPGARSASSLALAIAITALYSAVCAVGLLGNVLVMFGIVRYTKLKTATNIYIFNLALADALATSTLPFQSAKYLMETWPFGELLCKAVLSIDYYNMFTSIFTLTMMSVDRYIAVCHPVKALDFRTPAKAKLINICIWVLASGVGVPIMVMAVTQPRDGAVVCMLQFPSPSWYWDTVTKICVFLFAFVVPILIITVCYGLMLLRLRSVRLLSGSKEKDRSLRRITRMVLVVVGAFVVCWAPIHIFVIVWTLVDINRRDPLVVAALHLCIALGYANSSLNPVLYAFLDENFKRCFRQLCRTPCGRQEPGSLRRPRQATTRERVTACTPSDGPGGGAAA
Description: Seventy percent of the total binding was specific by conventional criteria.
For this experiment, ^125 I-beta-endorphin was preincubated 30 minutes with various amounts of the complementary peptide, gamma-ODNE, before a 30 minute (37° C.) incubation with NG108-15 cells in microtiter wells. After the incubation, cells were washed 3 times and cell associated radioactivity wad determined with a Packard Multi-Prias gamma counter.

[4] = tested on: mouse adrenal tumor (Y-1) cells; experiment: Glucocorticoid hormone production by Y-1 cells (corticosterone RIA); assay type: cell-based; settings: ACTH 10 microunits/well, 18 hrs
Description: An induction of glucocorticoid hormone production by ACTH and anti-HTCA was found with cultured mammalian cells. Duplicate cultures of mouse adrenal tumor (Y-1) cells in microtiter plates were treated with culture media, ACTH (10 microunits/well) or various dilutions of the anti-HTCA.
^a Duplicate cultures of mouse adrenal (Y1) cells in microtiter plate
were treated with culture media, ACTH (10 microunits/well) or the
indicated dilutions of antibody to HTCA. After 18 hrs incubation at
37° in 4% CO2, replicate cultures were pooled and assayed for
glucocorticoid hormone production by a radioimmunoassay (RIA) for […]

[5] = tested on: mouse adrenal tumor (Y-1) cells; experiment: Binding of anti-HTCA to affixed Y-1 cells (ELISA); settings: FIG. 5
Description: Mouse adrenal tumor (Y-1) cells were affixed by glutaraldehyde in flat bottom wells of a microtiter plate. The affixed cells were then treated with rabbit anti-KLH or rabbit anti-HTCA alone or in the presence of several levels of ACTH. After washing, the microtiter wells were treated with goat antibody to rabbit immunoglobulin the goat antibody being coupled to the enzyme alkaline phosphatase. After washing away unbound antibody-phosphatase complex, p-nitrophenyl phosphate was added and the enzyme dependent development of absorbancy at […] was monitored. […] ACTH and anti-HTCA appeared competitive for the same binding site on the mouse adrenal tumor (Y-1) cells. Rabbit anti KLH had no effect (shaded region).

[6] = tested on: antibody to ACTH; experiment: Competition in standard RIA for ACTH; assay type: binding
Description: Using a standard Radioimmunoassay (RIA) for ACTH (Immuno Nuclear Corporation, CAT. #2400), the ability of antibodies to a peptide (HTCA) complementary to ACTH to bind with antibodies to ACTH was determined. In a Standard RIA for ACTH, unlabelled ACTH is added in known amounts to a solution of radiolabelled ACTH and antibody to ACTH to compete away the binding of radiolabelled ACTH to its antibody. The amount of radiolabel bound is determined by immunoprecipitating the antibody and counting the radioactivity of the precipitiate.
In the experiment, unlabelled ACTH, immunoglobulin from rabbits immunized with the complementary peptide HTCA, and immunoglobulins from normal rabbits were used to compete with radiolabelled ACTH in the RIA. Immunoglobulin (35 mg/ml) solutions were prepared in phosphate buffered saline, and ACTH and ^125 I-ACTH were prepared as specified in the RIA kit.

[7] = tested on: HTCA; experiment: Solid phase radiobinding assay for ACTH in serum on HTCA-coated wells; assay type: binding; settings: for Log10 Dilution at which 50% inhibition occurred: graphic interpolation
HTCA, sequence (as listed by the source): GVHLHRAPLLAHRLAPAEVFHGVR
Description: Complementary peptide (HTCA) was dissolved in phosphate buffered saline (PBS) at 1 mg/ml and 200 ul aliquots were placed in wells of a 96 well polyvinyl assay plate (Microtest III, Falcon Cat. #3911). HTCA was allowed to coat the wells overnight at 4° C. The coating solution was removed and the wells were washed three times with PBS. Radiolabeled ACTH (^125 I-ACTH, New England Nuclear NEX-65) was diluted into PBS containing 0.0005% TWEEN-20 so as to deliver 50 pg (or about 30,000 cpm) in a 20 ul volume.
Serum samples were prepared in a 96 well tissue culture plate by serial dilution of serum into PBS/TWEEN 20 to give a final volume of 180 ul/well. The serum samples were then transferred to the HTCA coated a ssay plate and allowed to incubate. Finally, 20 ul of ^125 I-ACTH solution was added, incubated, and the total sample of 200 ul was removed. After washing three times with PBS, the wells were cut from the plate and counted in a gamma counter.
Serum samples used in this study contained either 50 pg/ml or 500 pg/ml of ACTH added to fetal calf serum (FCS).

Compound: C=CCN1CC[C@]23c4c5ccc(O)c4O[C@H]2C(=O)CC[C@@]3(O)[C@H]1C5 [naloxone]
reversal of serum-induced catatonia (in words) [1]: reversed

Compound: QRDKGRLALLGGHEPAV [gamma-odne, H2 N--gln--arg--asp--lys--gly--arg--leu--ala--leu--leu--gly--gly--his--glu--pro--ala--val--COOH]
gamma-endorphin binding to coated wells, absorbance at 405 nM (in words) [2]: significantly bound | inhibition at 100 µM ([3]; 10^-4 M): 75 ± 0.6% | inhibition at 10 µM ([3]; 10^-5 M): 36 ± 2.1% | inhibition at 1 µM ([3]; 10^-6 M, 30 min preincubation with 10^-11 M label): 24.7 ± 3.9%

Percent Specific Binding ([6]; competitor 20 pg/ml): 90% | Percent Specific Binding ([6]; competitor 50 pg/ml): 77.5% | Percent Specific Binding ([6]; competitor 100 pg/ml): 62.2% | Percent Specific Binding ([6]; competitor 200 pg/ml): 42% | Percent Specific Binding ([6]; competitor 500 pg/ml): 21.6% | % Inhibition of Specific Binding ([7]; 50 pg/ml ACTH in FCS, Log10 Dilution 0): 91% | Log10 Dilution at which 50% inhibition occurred ([7]; 50 pg/ml serum sample): -1.1 | % Inhibition of Specific Binding ([7]; 50 pg/ml, Log10 Dilution -0.5): 73% | % Inhibition of Specific Binding ([7]; 50 pg/ml, Log10 Dilution -1.0): 40% | % Inhibition of Specific Binding ([7]; 50 pg/ml, Log10 Dilution -1.5): 44% | % Inhibition of Specific Binding ([7]; 50 pg/ml, Log10 Dilution -2.0): 9% | % Inhibition of Specific Binding ([7]; 50 pg/ml, Log10 Dilution -2.5): 1% | % Inhibition of Specific Binding ([7]; 50 pg/ml, Log10 Dilution -3.0): 0% | % Inhibition of Specific Binding ([7]; 50 pg/ml, Log10 Dilution -3.5): 0% | % Inhibition of Specific Binding ([7]; 500 pg/ml ACTH in FCS, Log10 Dilution 0): 85% | Log10 Dilution at which 50% inhibition occurred ([7]; 500 pg/ml serum sample): -2.0 | % Inhibition of Specific Binding ([7]; 500 pg/ml, Log10 Dilution -0.5): 90% | % Inhibition of Specific Binding ([7]; 500 pg/ml, Log10 Dilution -1.0): 77% | % Inhibition of Specific Binding ([7]; 500 pg/ml, Log10 Dilution -1.5): 57% | % Inhibition of Specific Binding ([7]; 500 pg/ml, Log10 Dilution -2.0): 53% | % Inhibition of Specific Binding ([7]; 500 pg/ml, Log10 Dilution -2.5): 35% | % Inhibition of Specific Binding ([7]; 500 pg/ml, Log10 Dilution -3.0): 32% | % Inhibition of Specific Binding ([7]; 500 pg/ml, Log10 Dilution -3.5): 20%
Compound: ACTH: Synthetic ACTH, fragment 1-24, obtained from Organon; unlabelled ACTH of RIA kit in later examples
Corticosterone equivalents ([4]; Experiment 1): 1.08 µg/mL | Corticosterone equivalents ([4]; Experiment 2): 1.42 µg/mL | effect on binding to Y-1 cells, absorbancy at 405 nM (in words) [5]: blocked binding of the anti-HTCA in a dose dependent manner
